Assay results published in patent publication US10519152B2, “Compounds and their use in treating cancer” (AstraZeneca AB, priority 2017, dated 2019).

Biological target: T1, Estrogen Receptor (ERα) in MCF-7 human ductal carcinoma breast cell line (Homo sapiens, UniProt P03372)
T1 construct: endogenous in cells; host or cells: MCF-7
T1 sequence (P03372 1-595): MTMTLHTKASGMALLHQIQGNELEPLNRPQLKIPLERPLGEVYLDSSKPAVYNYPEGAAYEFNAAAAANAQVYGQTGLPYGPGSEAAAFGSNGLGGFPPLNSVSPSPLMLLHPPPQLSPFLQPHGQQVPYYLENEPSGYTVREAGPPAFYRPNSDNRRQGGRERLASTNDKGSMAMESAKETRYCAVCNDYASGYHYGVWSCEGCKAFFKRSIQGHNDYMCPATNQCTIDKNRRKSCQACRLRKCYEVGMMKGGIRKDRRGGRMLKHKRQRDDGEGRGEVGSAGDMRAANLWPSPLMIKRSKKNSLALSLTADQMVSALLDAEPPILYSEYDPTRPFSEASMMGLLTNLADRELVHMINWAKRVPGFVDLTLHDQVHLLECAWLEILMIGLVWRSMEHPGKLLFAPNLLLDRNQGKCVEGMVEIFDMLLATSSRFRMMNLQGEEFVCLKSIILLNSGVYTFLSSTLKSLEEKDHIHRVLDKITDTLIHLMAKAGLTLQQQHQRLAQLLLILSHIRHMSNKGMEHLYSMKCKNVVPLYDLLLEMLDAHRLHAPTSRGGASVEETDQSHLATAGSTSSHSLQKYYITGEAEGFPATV
Assay: MCF-7 ER degradation assay (cell based immuno-fluorescence)
Conditions: MCF-7 cells; for ER degradation ≥ 90% at 0.3 μM: ER degradation by fulvestrant at 0.3 μM is defined as 100%; for DC50: 18-22 hours incubation, 50% reduction of ERα expression, single experiment or average of two or more, read-out: MCF-7 ER degradation IC50
In short: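 MCF-7 human ductal carcinoma breast cells were seeded at 3.75×10^4 cells per mL (40 μL per well) in 384 well plates with phenol red free DMEM containing 2 mM L-Glutamine and 5% (v/v) Charcoal/Dextran treated foetal calf serum. After overnight culture, compounds were acoustically dispensed, incubated 18-22 hours, then cells were formaldehyde-fixed and immunostained for ERα.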

| Structure (SMILES) | ER degradation ≥ 90% at 0.3 μM | DC50 |
| --- | --- | --- |
| Cc1ncsc1-c1ccc(CNC(=O)[C@@H]2C[C@@H](O)CN2C(=O)[C@@H](NC(=O)COCCNC(=O)/C=C/c2cc(F)c([C@@H]3c4[nH]c5ccccc5c4C[C@@H](C)N3CC(C)(C)F)c(F)c2)C(C)(C)C)cc1 [Example 62, (2S,4R)-1-((S)-2-(2-(2-((E)-3-(3,5-difluoro-4-((1R,3R)-2-(2-fluoro-2-methylpropyl)-3-methyl-2,3,4,9-tetrahydro-1H-pyrido[3,4-b]indol-1-yl)phenyl)acrylamido)ethoxy)acetamido)-3,3-dimethylbutanoyl)-4-hydroxy-N-(4-(4-methylthiazol-5-yl)benzyl)pyrrolidine-2-carboxamide, Trifluoroacetic Acid] | • | 0.6 nM |
| Cc1ncsc1-c1ccc(CNC(=O)[C@@H]2C[C@@H](O)CN2C(=O)[C@@H](NC(=O)COCc2cccc(CCCOc3cc(F)c([C@@H]4c5[nH]c6ccccc6c5C[C@@H](C)N4CC(C)(C)F)c(F)c3)c2)C(C)(C)C)cc1 [Example 74, (2S,4R)-1-((S)-2-(2-((3-(3-(3,5-Difluoro-4-((1R,3R)-2-(2-fluoro-2-methylpropyl)-3-methyl-2,3,4,9-tetrahydro-1H-pyrido[3,4-b]indol-1-yl)phenoxy)propyl)benzyl)oxy)acetamido)-3,3-dimethylbutanoyl)-4-hydroxy-N-(4-(4-methylthiazol-5-yl)benzyl)pyrrolidine-2-carboxamide] | •• | 14.3 nM |
| Cc1ncsc1-c1ccc(CNC(=O)[C@@H]2C[C@@H](O)CN2C(=O)[C@@H](NC(=O)COCCOCCOCCCNC(=O)c2cc(F)c([C@@H]3c4[nH]c5ccccc5c4C[C@@H](C)N3CC(C)(C)F)c(F)c2)C(C)(C)C)cc1 [Example 84, (2S,4R)-1-((S)-16-(tert-Butyl)-1-(3,5-difluoro-4-((1R,3R)-2-(2-fluoro-2-methylpropyl)-3-methyl-2,3,4,9-tetrahydro-1H-pyrido[3,4-b]indol-1-yl)phenyl)-1,14-dioxo-6,9,12-trioxa-2,15-diazaheptadecan-17-oyl)-4-hydroxy-N-(4-(4-methylthiazol-5-yl)benzyl)pyrrolidine-2-carboxamide] | •• | 0.7 nM |
| Cc1ncsc1-c1ccc(CNC(=O)[C@@H]2C[C@@H](O)CN2C(=O)[C@@H](NC(=O)COCCOCCOCCOc2cc(F)c([C@@H]3c4[nH]c5ccccc5c4C[C@@H](C)N3CC(F)(F)CO)c(F)c2)C(C)(C)C)cc1 [Example 71, (2S,4R)-1-((S)-2-(tert-Butyl)-14-(4-((1R,3R)-2-(2,2-difluoro-3-hydroxypropyl)-3-methyl-2,3,4,9-tetrahydro-1H-pyrido[3,4-b]indol-1-yl)-3,5-difluorophenoxy)-4-oxo-6,9,12-trioxa-3-azatetradecanoyl)-4-hydroxy-N-(4-(4-methylthiazol-5-yl)benzyl)pyrrolidine-2-carboxamide] | • | 0.5 nM |
| Cc1ncsc1-c1ccc(CNC(=O)[C@@H]2C[C@@H](O)CN2C(=O)[C@@H](NC(=O)c2ccc(N3CCN(CCNC(=O)/C=C/c4cc(F)c([C@@H]5c6[nH]c7ccccc7c6C[C@@H](C)N5CC(C)(C)F)c(F)c4)CC3)cc2)C(C)(C)C)cc1 [Example 67, (2S,4R)-1-((S)-2-(4-(4-(2-((E)-3-(3,5-difluoro-4-((1R,3R)-2-(2-fluoro-2-methylpropyl)-3-methyl-2,3,4,9-tetrahydro-1H-pyrido[3,4-b]indol-1-yl)phenyl)acrylamido)ethyl)piperazin-1-yl)benzamido)-3,3-dimethylbutanoyl)-4-hydroxy-N-(4-(4-methylthiazol-5-yl)benzyl)pyrrolidine-2-carboxamide, Trifluoroacetic Acid] | • | 4.5 nM |
